pIC50: −log10 of the molar value.

The assay deals with Glutamate carboxypeptidase 2 (Homo sapiens, UniProt Q04609). As to the kind of experiment: Inhibition of human PSMA.
Sequence of Glutamate carboxypeptidase 2 (Q04609 whole entry): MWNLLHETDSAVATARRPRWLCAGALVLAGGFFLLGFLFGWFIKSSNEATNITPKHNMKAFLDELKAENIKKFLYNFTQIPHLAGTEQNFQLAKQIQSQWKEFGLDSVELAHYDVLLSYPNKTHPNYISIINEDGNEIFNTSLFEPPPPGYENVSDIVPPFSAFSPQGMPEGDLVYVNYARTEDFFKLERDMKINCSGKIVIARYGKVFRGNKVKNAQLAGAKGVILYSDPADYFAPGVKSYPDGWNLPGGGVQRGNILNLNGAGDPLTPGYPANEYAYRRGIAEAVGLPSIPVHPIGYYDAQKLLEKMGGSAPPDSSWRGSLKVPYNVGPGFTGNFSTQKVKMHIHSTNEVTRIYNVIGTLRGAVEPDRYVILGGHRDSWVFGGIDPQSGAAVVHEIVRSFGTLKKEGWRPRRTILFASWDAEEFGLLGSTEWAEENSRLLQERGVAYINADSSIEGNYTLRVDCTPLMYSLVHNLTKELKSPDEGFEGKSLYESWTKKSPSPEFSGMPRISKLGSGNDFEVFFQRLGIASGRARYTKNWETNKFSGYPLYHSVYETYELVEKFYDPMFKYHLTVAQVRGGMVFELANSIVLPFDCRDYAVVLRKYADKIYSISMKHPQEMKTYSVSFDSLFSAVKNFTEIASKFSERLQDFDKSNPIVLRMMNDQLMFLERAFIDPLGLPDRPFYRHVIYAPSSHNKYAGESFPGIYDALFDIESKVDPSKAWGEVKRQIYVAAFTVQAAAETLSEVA
Consider `C[C@]12CC[C@@H]3c4ccc(OC(=O)c5ccccc5)cc4CC[C@H]3[C@@H]1CC[C@@H]2OCCCOP(=O)(O)N[C@@H](CCC(=O)O)C(=O)O`, for which the negative logarithm of the IC50 (pIC50) – broadly, the IC50 on a negative log10 scale, so that one unit is a factor of ten – is 6.24.

The molecule `CC(C)CCC[C@@H](C)[C@H]1CC[C@H]2[C@@H]3CCC4C[C@@H](OCCCOP(=O)(O)N[C@@H](CCC(=O)O)C(=O)O)CC[C@]4(C)[C@H]3CC[C@]12C` (stereo partly specified) gave a pIC50 of 6.90.

On to `C[C@]12CC[C@H](OP(=O)(O)N[C@@H](CCC(=O)O)C(=O)O)C[C@@H]1CC[C@@H]1[C@@H]2CC[C@]2(C)C(=O)CC[C@@H]12`, for which the pIC50 is 6.24.

As for `CC(C)CCC[C@@H](C)[C@H]1CC[C@H]2[C@@H]3CCC4C[C@@H](OP(=O)(O)N[C@@H](CCC(=O)O)C(=O)O)CC[C@]4(C)[C@H]3CC[C@]12C` (stereo partly specified), the negative-log IC50 (pIC50) is 6.36.

As for `C[C@]12CC[C@H](OCCCOP(=O)(O)N[C@@H](CCC(=O)O)C(=O)O)C[C@@H]1CC[C@@H]1[C@@H]2CC[C@]2(C)C(=O)CC[C@@H]12`, the pIC50 was 6.36.

Take `C[C@]12CC[C@@H]3c4ccc(OCCCOP(=O)(O)N[C@@H](CCC(=O)O)C(=O)O)cc4CC[C@H]3[C@@H]1CCC2=O`: the pIC50 is 6.85.
